Biological target: human TRPA1 (Homo sapiens (Human), UniProt O75762)
Assay: In vitro inhibition of human TRPA1, whole cell patch configuration
Type: cell-based
Conditions: current activation 10 μM AITC, tested concentrations 320 pM to 3.2 μM, read-out: hTRPA1 IC50
Procedure, shortened: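 Compound antagonism measured from voltage ramps (±100 or ±80 mV, 400 ms, every 4 s from −40 mV), analysed at −80 and 80 mV, or at constant −60 mV. HEPES-buffered NaCl bath, pH 7.4, EGTA or 2 mM Ca2+; temperature set by perfusion, within ±2° C; no junction-potential correction.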

human TRPA1, sequence (O75762 whole entry): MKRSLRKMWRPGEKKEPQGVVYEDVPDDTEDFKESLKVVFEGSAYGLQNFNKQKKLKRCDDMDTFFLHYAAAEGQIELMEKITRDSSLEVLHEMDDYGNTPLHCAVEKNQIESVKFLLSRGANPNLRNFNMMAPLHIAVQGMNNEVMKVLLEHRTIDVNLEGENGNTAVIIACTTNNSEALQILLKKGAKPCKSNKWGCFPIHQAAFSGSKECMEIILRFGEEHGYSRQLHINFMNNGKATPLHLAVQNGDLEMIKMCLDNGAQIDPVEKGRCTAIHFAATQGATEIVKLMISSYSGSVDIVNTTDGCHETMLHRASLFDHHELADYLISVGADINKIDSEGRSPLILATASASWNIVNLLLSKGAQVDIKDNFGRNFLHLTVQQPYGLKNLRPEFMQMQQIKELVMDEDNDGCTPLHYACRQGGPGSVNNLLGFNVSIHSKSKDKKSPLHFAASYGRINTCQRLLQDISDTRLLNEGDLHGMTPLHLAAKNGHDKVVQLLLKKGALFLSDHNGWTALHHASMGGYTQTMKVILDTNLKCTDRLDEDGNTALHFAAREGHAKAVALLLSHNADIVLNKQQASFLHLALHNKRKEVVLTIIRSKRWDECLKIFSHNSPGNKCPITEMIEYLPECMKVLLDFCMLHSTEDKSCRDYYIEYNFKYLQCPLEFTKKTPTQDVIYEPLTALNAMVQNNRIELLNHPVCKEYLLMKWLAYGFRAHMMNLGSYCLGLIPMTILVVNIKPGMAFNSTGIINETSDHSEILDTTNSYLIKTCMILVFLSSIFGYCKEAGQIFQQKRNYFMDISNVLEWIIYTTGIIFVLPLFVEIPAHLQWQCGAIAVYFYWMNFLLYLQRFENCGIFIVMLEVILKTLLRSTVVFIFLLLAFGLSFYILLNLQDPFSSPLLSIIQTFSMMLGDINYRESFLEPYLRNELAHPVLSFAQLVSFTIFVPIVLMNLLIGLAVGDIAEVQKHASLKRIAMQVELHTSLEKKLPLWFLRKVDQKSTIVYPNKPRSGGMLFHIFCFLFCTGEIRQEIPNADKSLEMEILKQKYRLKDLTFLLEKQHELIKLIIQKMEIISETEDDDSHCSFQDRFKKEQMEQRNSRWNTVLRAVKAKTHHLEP

IC50 | Compound
13 nM | Cc1cc(-c2cncc(NC(=O)[C@H](C)n3cnc4c3c(=O)n(Cc3ccon3)c(=O)n4C)n2)cnc1C(F)(F)F [Compound 137, (S)-2-(1-(isoxazol-3-ylmethyl)-3-methyl-2,6-dioxo-2,3-dihydro-1H-purin-7(6H)-yl)-N-(6-(5-methyl-6-(trifluoromethyl)pyridin-3-yl)pyrazin-2-yl)propanamide]
11 nM | Cc1cc(Cn2c(=O)c3c(ncn3[C@@H](C)C(=O)Nc3cncc(-c4cnc(C)c(Cl)c4)n3)n(C)c2=O)no1 [Compound 139, (S)—N-(6-(5-chloro-6-methylpyridin-3-yl)pyrazin-2-yl)-2-(3-methyl-1-((5-methylisoxazol-3-yl)methyl)-2,6-dioxo-2,3-dihydro-1H-purin-7(6H)-yl)propanamide]
32 nM | CC(=O)Cn1c(=O)c2c(ncn2[C@@H](C)C(=O)Nc2cncc(-c3cnc(C)c(Cl)c3)n2)n(C)c1=O [Compound 140, (S)—N-(6-(5-chloro-6-methylpyridin-3-yl)pyrazin-2-yl)-2-(3-methyl-2,6-dioxo-1(2-oxopropyl)-2,3-dihydro-1H-purin-7(6H)-yl)propanamide]
80 nM | CC(C(=O)Nc1ccnc(-c2cnc(C(F)(F)F)nc2)n1)n1cnc2c1c(=O)n(Cc1ccccn1)c(=O)n2C (stereo not drawn) [Compound 141, 2-(3-methyl-2,6-dioxo-1-(pyridin-2-ylmethyl)-2,3-dihydro-1H-purin-7(6H)-yl)-N-(2′(trifluoromethyl)-2,5′-bipyrimidin-4-yl)propanamide]
7 nM | CC(=O)Cn1c(=O)c2c(ncn2[C@@H](C)C(=O)Nc2cccc(-c3cnc(N4CC5CC5C4)nc3)n2)n(C)c1=O (stereo partly drawn) [Compound 142, (2S)—N-(6-(2-(3-azabicyclo[3.1.0]hexan-3-yl)pyrimidin-5-yl)pyridin-2-yl)-2-(3-methyl-2,6-dioxo-1-(2-oxopropyl)-2,3-dihydro-1H-purin-7(6H)-yl)propanamide]
20 nM | CC(=O)Cn1c(=O)c2c(ncn2[C@@H](C)C(=O)Nc2ccnc(-c3cnc(N4CC5CC5C4)nc3)n2)n(C)c1=O (stereo partly drawn) [Compound 143, (2S)—N-(2′-(3-azabicyclo[3.1.0]hexan-3-yl)-2,5′-bipyrimidin-4-yl)-2-(3-methyl-2,6-dioxo-1-(2-oxopropyl)-2,3-dihydro-1H-purin-7(6H)-yl)propanamide]
2 nM | CC#CCn1c(=O)c2c(ncn2[C@@H](C)C(=O)Nc2csc(-c3cnc(N4CC5CC5C4)nc3)n2)n(C)c1=O (stereo partly drawn) [Compound 145, (2S)—N-(2-(2-(3-azabicyclo[3.1.0]hexan-3-yl)pyrimidin-5-yl)thiazol-4-yl)-2-(1-(but-2-ynyl)-3-methyl-2,6-dioxo-2,3-dihydro-1H-purin-7(6H)-yl)propanamide]
3 nM | COCC(=O)Cn1c(=O)c2c(ncn2[C@@H](C)C(=O)Nc2cccc(-c3cnc(N4CC5C(C4)C5(F)F)nc3)n2)n(C)c1=O (stereo partly drawn) [Compound 146, (2S)—N-(6-(2-(6,6-difluoro-3-azabicyclo[3.1.0]hexan-3-yl)pyrimidin-5-yl)pyridin-2-yl)-2-(1-(3-methoxy-2-oxopropyl)-3-methyl-2,6-dioxo-2,3-dihydro-1H-purin-7(6H)-yl)propanamide]
6 nM | CCC(=O)Cn1c(=O)c2c(ncn2[C@@H](C)C(=O)Nc2cccc(-c3cnc(N4CC5CC5C4)nc3)n2)n(C)c1=O (stereo partly drawn) [Compound 147, (2S)—N-(6-(2-(3-azabicyclo[3.1.0]hexan-3-yl)pyrimidin-5-yl)pyridin-2-yl)-2-(3-methyl-2,6-dioxo-1-(2-oxobutyl)-2,3-dihydro-1H-purin-7(6H)-yl)propanamide]
4 nM | Cc1noc(Cn2c(=O)c3c(ncn3[C@@H](C)C(=O)Nc3ccnc(-c4cnc(C(F)(F)F)c(C)c4)n3)n(C)c2=O)n1 [Compound 150, (S)-2-(3-methyl-1-((3-methyl-1,2,4-oxadiazol-5-yl)methyl)-2,6-dioxo-2,3-dihydro-1H-purin-7(6H)-yl)-N-(2-(5-methyl-6-(trifluoromethyl)pyridin-3-yl)pyrimidin-4-yl)propanamide]
16 nM | Cc1nc(Cn2c(=O)c3c(ncn3[C@@H](C)C(=O)Nc3cccc(-c4cnc(C)c(C(F)(F)F)c4)n3)n(C)c2=O)no1 [Compound 151, (S)-2-(3-methyl-1-((5-methyl-1,2,4-oxadiazol-3-yl)methyl)-2,6-dioxo-2,3-dihydro-1H-purin-7(6H)-yl)-N-(6′-methyl-5′-(trifluoromethyl)-2,3′-bipyridin-6-yl)propanamide]
7 nM | CC(=O)Cn1c(=O)c2c(ncn2[C@@H](C)C(=O)Nc2cncc(-c3cnc(N4CC5CC5C4)nc3)n2)n(C)c1=O (stereo partly drawn) [Compound 152, (2S)—N-(6-(2-(3-azabicyclo[3.1.0]hexan-3-yl)pyrimidin-5-yl)pyrazin-2-yl)-2-(3-methyl-2,6-dioxo-1-(2-oxopropyl)-2,3-dihydro-1H-purin-7(6H)-yl)propanamide]
> 3200 nM | CC(=O)Cn1c(=O)c2c(ncn2[C@@H](C)C(=O)Nc2ncsc2-c2cnc(C(F)(F)F)nc2)n(C)c1=O [Compound 154, (S)-2-(3-methyl-2,6-dioxo-1-(2-oxopropyl)-2,3-dihydro-1H-purin-7(6H)-yl)-N-(5-(2-(trifluoromethyl)pyrimidin-5-yl)thiazol-4-yl)propanamide]
3 nM | Cc1cc(Cn2c(=O)c3c(ncn3[C@@H](C)C(=O)Nc3cccc(-c4cncc(C(F)(F)F)c4)n3)n(C)c2=O)no1 [Compound 156, (S)-2-(3-methyl-1-((5-methylisoxazol-3-yl)methyl)-2,6-dioxo-2,3-dihydro-1H-purin-7(6H)-yl)-N-(5′-(trifluoromethyl)-2,3′-bipyridin-6-yl)propanamide]
1 nM | CC#CCn1c(=O)c2c(ncn2[C@@H](C)C(=O)Nc2csc(-c3cnc(N4CCC[C@@H]4C(F)(F)F)nc3)n2)n(C)c1=O [Compound 157, (S)-2-(1-(but-2-ynyl)-3-methyl-2,6-dioxo-2,3-dihydro-1H-purin-7(6H)-yl)-N-(2-(2-((R)-2-(trifluoromethyl)pyrrolidin-1-yl)pyrimidin-5-yl)thiazol-4-yl)propanamide]
6 nM | CCC(=O)Cn1c(=O)c2c(ncn2[C@@H](C)C(=O)Nc2cncc(-c3cnc(N4CC5CC5C4)cn3)n2)n(C)c1=O (stereo partly drawn) [Compound 158, (2S)—N-(5′-(3-azabicyclo[3.1.0]hexan-3-yl)-[2,2′-bipyrazin]-6-yl)-2-(3-methyl-2,6-dioxo-1-(2-oxobutyl)-2,3-dihydro-1H-purin-7(6H)-yl)propanamide]
6 nM | CCC(=O)Cn1c(=O)c2c(ncn2[C@@H](C)C(=O)Nc2cncc(-c3cnc(N4CC5C(C4)C5(F)F)cn3)n2)n(C)c1=O (stereo partly drawn) [Compound 159, (2S)—N-(5′-(6,6-difluoro-3-azabicyclo[3.1.0]hexan-3-yl)-[2,2′-bipyrazin]-6-yl)-2-(3-methyl-2,6-dioxo-1-(2-oxobutyl)-2,3-dihydro-1H-purin-7(6H)-yl)propanamide]
219 nM | Cc1cc(-c2nc(NC(=O)[C@H](C)n3cnc4c3c(=O)n(CC(F)(F)F)c(=O)n4C)cs2)cnc1C(F)(F)F [Compound 161, (S)-2-(3-methyl-2,6-dioxo-1-(2,2,2-trifluoroethyl)-2,3-dihydro-1H-purin-7(6H)-yl)-N-(2-(5-methyl-6-(trifluoromethyl)pyridin-3-yl)thiazol-4-yl)propanamide]
22 nM | Cc1ncc(-c2nc(NC(=O)[C@H](C)n3cnc4c3c(=O)n(CC(F)(F)F)c(=O)n4C)cs2)cc1C(F)(F)F [Compound 162, (S)-2-(3-methyl-2,6-dioxo-1-(2,2,2-trifluoroethyl)-2,3-dihydro-1H-purin-7(6H)-yl)-N-(2-(6-methyl-5-(trifluoromethyl)pyridin-3-yl)thiazol-4-yl)propanamide]
2 nM | Cc1nc(Cn2c(=O)c3c(ncn3[C@@H](C)C(=O)Nc3csc(-c4cnc(C)c(C(F)(F)F)c4)n3)n(C)c2=O)no1 [Compound 163, (S)-2-(3-methyl-1-((5-methyl-1,2,4-oxadiazol-3-yl)methyl)-2,6-dioxo-2,3-dihydro-1H-purin-7(6H)-yl)-N-(2-(6-methyl-5-(trifluoromethyl)pyridin-3-yl)thiazol-4-yl)propanamide]
21 nM | CC(=O)Cn1c(=O)c2c(ncn2[C@@H](C)C(=O)Nc2cncc(-c3cnc(N4CC5C(C4)C5(F)F)cn3)n2)n(C)c1=O (stereo partly drawn) [Compound 164, (2S)—N-(5′-(6,6-difluoro-3-azabicyclo[3.1.0]hexan-3-yl)-[2,2′-bipyrazin]-6-yl)-2-(3-methyl-2,6-dioxo-1-(2-oxopropyl)-2,3-dihydro-1H-purin-7(6H)-yl)propanamide]
7 nM | COCC(=O)Cn1c(=O)c2c(ncn2[C@@H](C)C(=O)Nc2cccc(-c3cnc(N4CC5CC5C4)nc3)n2)n(C)c1=O (stereo partly drawn) [Compound 165, (2S)—N-(6-(2-(3-azabicyclo[3.1.0]hexan-3-yl)pyrimidin-5-yl)pyridin-2-yl)-2-(1-(3-methoxy-2-oxopropyl)-3-methyl-2,6-dioxo-2,3-dihydro-1H-purin-7(6H)-yl)propanamide]
6 nM | Cc1noc(Cn2c(=O)c3c(ncn3[C@@H](C)C(=O)Nc3csc(-c4cnc(N5CC6CC6C5)nc4)n3)n(C)c2=O)n1 (stereo partly drawn) [Compound 166, (2S)—N-(2-(2-(3-azabicyclo[3.1.0]hexan-3-yl)pyrimidin-5-yl)thiazol-4-yl)-2-(3-methyl-1-((3-methyl-1,2,4-oxadiazol-5-yl)methyl)-2,6-dioxo-2,3-dihydro-1H-purin-7(6H)-yl)propanamide]
4 nM | Cc1noc(Cn2c(=O)c3c(ncn3[C@@H](C)C(=O)Nc3cccc(-c4cnc(N5CC6CC6C5)nc4)n3)n(C)c2=O)n1 (stereo partly drawn) [Compound 167, (2S)—N-(6-(2-(3-azabicyclo[3.1.0]hexan-3-yl)pyrimidin-5-yl)pyridin-2-yl)-2-(3-methyl-1-((3-methyl-1,2,4-oxadiazol-5-yl)methyl)-2,6-dioxo-2,3-dihydro-1H-purin-7(6H)-yl)propanamide]
